Like-named read-outs stand apart in the source and are kept apart here. Values belong to the molecule of their own block, whether it stands above or below them.
How the values were obtained:
[1] = test system: carcinoma human T24 bladder cells; design: method as in PMID 37569273; conditions: T24 bladder cells vs other cell lines; cited from earlier work
HeLa cells [2] = conditions: cited from earlier work
HEK293T cells = assay: MTT cell viability assay, HEK293T cells; assay type: cell-based, human; conditions: 48 h incubation, mean ± SD, stock in DMSO (3-Cl and cisplatin in water)
Method: (§1) Cell viability tests of the ligand and metal precursors (pqhyme, pqca, pcqame, [Ru(η^6-p-cymene)(μ-Cl)Cl]2) and the ruthenium(II)–arene complexes 1-Cl, 2-Cl and 3-Cl were conducted in two cell lines, including epithelial-like HEK293T cells (human embryonic kidney cells) and tumor-derived HeLa cells (cervical cancer cells), by MTT colorimetric assay, after 48 h incubation (MTT = 3-(4,5-dimethylthiazol-2-yl)-2,5-diphenyl tetrazolium bromide). For comparison, the 3-PF6 analog was also studied. Generally, a 5 to 10 mM stock solution of the complexes in DMSO (H2O for cisplatin) was prepared and diluted appropriately to reach the final concentration reported in the Materials and Methods. HeLa cancer cells were chosen since this cell line is widely used in cytotoxicity studies while the non-cancerous HEK293T cell line was used for comparison. Cytotoxicity results of all substances studied in both cell lines expressed as IC50 mean values, are summarized in Table 1, including that of cisplatin, which served as control under the same conditions. The IC50 values were calculated using a dose–response model, which was obtained from sigmoidal fitting of dose–response curves.
(§2) The HEK293T cell line (immortalized human embryonic kidney cells) and the HeLa cell line (cervical cancer cells) were obtained from ATCC. Cells were cultured at 37 °C and 5% CO2 in high glucose Dulbecco’s modified Eagle’s medium (DMEM) containing 10% fetal bovine serum (FBS), penicillin (100 units/mL), and streptomycin (100 μg/mL).
(§3) Ruthenium complexes were diluted in stock solutions of 10 mM in dimethyl sulfoxide (DMSO). A similar concentration of cisplatin dissolved in H2O was used. Cells were seeded in sterile tissue culture 96-well plates at a density of 3,000 cells per well. After 24 h, the medium was removed and replaced with fresh media containing various concentrations (0.01 μΜ, 0.1 μΜ, 1 μΜ, 10 μΜ, 25 μΜ, 40 μΜ, 55 μΜ, 70 μΜ, 85 μΜ, and 100 μΜ) of the compounds to be tested and were further incubated for 48 h at 37 °C. DMSO was used as vehicle at ≤1%. Culture medium containing the compounds (or DMSO) was removed and 100 μL of 0.5 mg/mL MTT reagent (Applichem) diluted in DMEM was added to the cells for 3 h at 37 °C. After 3 h incubation, MTT was removed and 200 μL of DMSO was added. Absorbance values of formazan were measured at 540 nm using a BioTek Synergy H1 microplate reader (Agilent). All compounds were tested in triplicate. The results were statistically analyzed using the nonlinear regression by GraphPad PRISM (Version 9) to extract IC50 values.

HeLa cells [3] = assay: MTT cell viability assay, HeLa cells; assay type: cell-based, human; conditions: 48 h incubation, mean ± SD, stock in DMSO (3-Cl and cisplatin in water)
Method: as §1, §2, §3

[4] = Solution stability by 1H NMR spectroscopy; assay type: physicochemical
Text: The solution NMR spectra (^1H and ^13C{^1H}) of 1-Cl and 1-PF6 in CDCl3 feature the characteristic set of resonances of the pqhyme and p-cymene ligands supporting the proposed formulae of the compounds (Figures S2–S5 of the Supplementary Materials). Atom numbering for NMR assignment is included in Scheme 1. […] The separate and well-resolved resonance signals at δ 5.92–5.61 in a ratio of 1:1:1:1 (according to integration) are typical of the p-cymene ring protons. The characteristic singlet resonance signals at δ 5.47 for 1-Cl and 5.48 for 1-PF6 are attributed to the -CH2 protons of the pending -CH2OH moiety. These were upfield shifted compared to the p-cymene ligand of the metal precursor [43]. In addition, the septet resonance signals at δ 2.29 for 1-Cl and δ 2.44 for 1-PF6 are indicative of the -CH(CH3)2 proton, while the two […] at δ 0.87/0.91 (1-Cl) and δ 0.93/0.97 (1-PF6) can be assigned to the methyl protons of the isopropyl group. For 1-Cl, and after two days of standing in CDCl3, free p-cymene was detected (c.a. 2.6%) along with the formation of new unknown species. The ^1H NMR pattern of the spectrum remained practically unchanged (Figure S7).
The ^1H NMR spectrum of 2-Cl was recorded in DMSO-d6 at ambient temperature. […] The stability of 2-Cl in DMSO is shown below in Section 2.1.1. […] The singlet resonance at δ 8.94 is typical for H3 of the bidentate ligand, while the four separate doublet resonance signals in between δ 6.19, 6.13, 6.03, and 5.97 correspond to the p-cymene ring protons. […] In this region, the CH3 protons of the -CH-(CH3)2 moiety appear as two doublet resonances at δ 0.81 and 0.77, respectively. The ^13C NMR signals of 2-Cl were assigned by two-dimensional ^1H–^13C HSQC and ^1H–^13C HMBC methods and compared with the literature data from similar complexes. […] Analyzing the spectrum, the resonance signal at δ 166.31 is assigned to the carbon atom of the carboxylic acid group of pqca. In the aliphatic region of the spectrum, the carbon atoms from the CH3 groups of p-cymene ligand appear as intense singlets at δ 21.58, 21.21, and 18.18, respectively (Figures S12–S15).
(§4) The cytotoxicity studies of the organometallic ruthenium(II) complexes 1-Cl, 2-Cl, and 3-PF6 were carried out in dimethyl sulfoxide (DMSO) while 3-Cl was dissolved in water. According to UV–Vis spectroscopy, complexes 1-Cl and 2-Cl are stable in the media that are used for the biological assays (Figures S25–S26), while 3-Cl undergoes hydrolysis approximately 3 h after with isosbestic points at 276 nm and 322 nm, respectively (Figure S27). […] In any case, for the biological assays, freshly prepared solutions were prepared that were utilized within approximately 5–10 min.

Solubility (qualitative) = assay type: physicochemical; conditions: solvents
Method: The mononuclear organometallic complex 1-Cl comprising the pqhyme ligand was isolated as an orange–brown solid in high yield. […] Subsequent treatment with a saturated aqueous KPF6 solution afforded, via a metathesis reaction, the hexafluorido analog 1-PF6. Both complexes are air-stable in the solid state and melt with decomposition at 155 °C and 137 °C, respectively. The FT-IR spectra (ATR mode) of both complexes are almost identical, as expected for complexes that display very similar structures. For 1-Cl the presence of water of crystallization is evident from the intense and broad bands at ∼3350–3250 cm^−1 due to the antisymmetric and symmetric ν(O-H) stretching vibration modes. The O–H stretching vibration band from pending -CH2OH moiety is hampered within the broadness of the band reported above. Also, the strong band at approximately 1650 cm^−1 is due to the δ(H–O-H) bending mode. The characteristic bands at 3061 cm^−1, and in the region of 2998–2850 cm^−1 correspond to ν(C–H) aromatic and aliphatic stretching vibrations modes of the ligand, while the medium intensity band at ∼800 cm^−1 is typical for the stretching vibration mode of ν(Ru–C). In the region of 800-600 cm^−1, the spectrum is dominated by the very strong in-plane and out-of-plane deformation bands from the pyridine ring of pqhyme ligand. For 1-PF6, the two very strong bands at 840 cm^−1 and 557 cm^−1 are assigned to the ν3(P–F) and ν4(P–F) vibration modes of the PF6^− anion (Figure S1 of the Supplementary Materials).
The [Ru(η^6-p-cymene)(pqca)Cl]Cl complex 2-Cl was isolated in 85% yield as an orange–red air-stable solid that melts at 125 °C. Upon further heating, decomposition occurs at 150 °C, accompanied by gas evolution, leading to a black solid.
The [Ru(η^6-p-cymene)(pqcame)Cl]Cl analog 3-Cl was isolated almost quantitatively as a dark brown air-stable solid that decomposes at 111 °C. […] The FT-IR spectrum of 3-Cl is characterized by a strong asymmetric stretching vibration typical of the νas(C=O) of the ester moiety at 1722 cm^−1, shifted to higher wave numbers compared with 2-Cl. […]

[5] = Solution stability by UV-Vis spectroscopy; assay type: physicochemical; conditions: for Stability in the media used for the biological assays (UV-Vis): DMSO, ambient temperature
Method: To ensure the stability of the complexes for the in vitro cytotoxicity measurements, UV–Vis and ^1H NMR spectroscopic techniques were undertaken. UV–Vis spectra were recorded in DMSO (not dry), for complexes 1-Cl and 2-Cl (Figures S25–S27) and in water for complex 3-Cl (Figure 3), at ambient temperature, immediately after dissolution. The absorption spectra of 1-Cl and 2-Cl show a broad absorption band centered at ~ 435 nm, as reported for other ruthenium(II) half-sandwich arene complexes. For 3-Cl, this band becomes weaker and is blue-shifted to 422 nm. Ongoing from 1-Cl to 3-Cl, the set of high energy bands observed at 354 nm/296 nm (1-Cl), 357 nm/298 nm (2-Cl), and 357 nm/293 nm (3-Cl), are typical of metal-to-ligand charge transfer absorption bands (MLCT) and ligand-centered π–π* transitions. Within the series, ε values for these transitions range from 3000 to 9600 dm^3 mol^−1 cm^−1, with the methyl ester analog 3-Cl, displaying the higher extinction coefficient value of ∼9600 dm^3 mol^−1 cm^−1.
as §4

Molecule: Cc1ccc(C(C)C)cc1.O=C(O)c1ccnc(-c2cc(C(=O)O)ccn2)c1.[Cl-].[Cl-].[Ru+2]
Selectivity among cell lines [1]: high selectivity toward carcinoma human T24 bladder cells

Molecule: Cc1ccc(C(C)C)cc1.Nc1ccccc1O.[Cl][Ru][Cl]
IC50 (HeLa cells [2]): 82.9 µM

Molecule: Cc1ccc(C(C)C)cc1.Nc1ccc(O)cc1.[Cl][Ru][Cl]
IC50 (HeLa cells [2]): 171 µM

IC50 (HeLa cells [3]): 56.4 ± 12.7 µM
Molecule: 4-carboxymethyl-2-(pyridin-2-yl)quinoline [pqcame]
IC50 (HEK293T cells): 48.9 ± 3.19 µM

Molecule: Cc1ccc(C(C)C)cc1.Cc1ccc(C(C)C)cc1.[Cl][Ru][Cl].[Cl][Ru][Cl] [[Ru(p-cymene)Cl2]2, [Ru(η^6-p-cymene)(μ-Cl)Cl]2]
IC50 (HEK293T cells): 48.3 ± 1.66 µM | IC50 (HeLa cells [3]): 48.9 ± 1.73 µM

Molecule: N.N.[Cl][Pt][Cl] [cis-platin, cisplatin, reference compound]
IC50 (HEK293T cells): 16.4 ± 7.62 µM | IC50 (HeLa cells [3]): 9.26 ± 1.09 µM

IC50 (HeLa cells [3]; Homo sapiens, HeLa): 100 ± 3.47 µM
Molecule: O=C(O)c1cc(-c2ccccn2)nc2ccccc12 [pqca, 4-carboxy-2-(pyridin-2-yl)quinoline]
IC50 (HEK293T cells; Homo sapiens, HEK-293T): 87.5 ± 1.3 µM

IC50 (HeLa cells [3]; Homo sapiens, HeLa): 12.8 ± 1.01 µM
Molecule: OCc1cc(-c2ccccn2)nc2ccccc12 [pqhyme, 4-hydroxymethyl-2-(pyridin-2-yl)quinoline]
IC50 (HEK293T cells; Homo sapiens, HEK-293T): 2.67 ± 1.23 µM

Period of 1H NMR monitoring showing stability ([4]; DMSO-d6): more than 72 h | Stability in DMSO-d6 (1H NMR) ([4]; DMSO-d6): practically remains stable | IC50 (HeLa cells [3]): 162 ± 21.3 µM | Stability in the media used for the biological assays (UV-Vis) [5]: stable
Molecule: [Ru(η^6-p-cymene)(pqca)Cl][Cl] [2-Cl]
IC50 (HEK293T cells): 180 ± 49.1 µM | Solubility (Solubility (qualitative)): soluble in polar organic solvents (MeOH, EtOH, water) including DMSO and DMF

IC50 (HeLa cells [3]): > 80 µM | Time until hydrolysis (UV-Vis, isosbestic points at 276 nm and 322 nm) ([5]; in water): approximately 3 h
Molecule: [Ru(η^6-p-cymene)(pqcame)Cl][Cl] [3-Cl]
IC50 (HEK293T cells): > 115 µM | Solubility (Solubility (qualitative)): dissolves in water, DMSO, and other polar solvents

IC50 (HeLa cells [3]): 134 ± 3.3 µM
Molecule: [Ru(η^6-p-cymene)(pqcame)Cl][PF6] [3-PF6]
IC50 (HEK293T cells): 145 ± 16.2 µM

Stability in DMSO-d6 (1H NMR) ([4]; DMSO-d6): stable | Free p-cymene detected (1H NMR) ([4]; after two days of standing in CDCl3): ~2.6% | IC50 (HeLa cells [3]): 119 ± 1.29 µM | Stability in the media used for the biological assays (UV-Vis) [5]: stable
Molecule: [Ru(η^6-p-cymene)(pqhyme)Cl][Cl] [1-Cl]
Solubility (Solubility (qualitative)): dissolves in DMSO, and water and is less soluble in CHCl3
